The record followed here is patent US10052306B2 (LUC THERAPEUTICS, INC., priority 2013, dated 2018).

Where two headings read alike, the source gives them in different places.

Assay [1] concerns the target NR1/NR2B (Homo sapiens (Human), UniProt Q13224). In words: Cell assay: FDSS Ca2+ influx inhibition in HEK293 cells expressing NR1/NR2B.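 Further: Fluo-8 Ca2+ signal read on Hamamatsu FDSS 6000 after glutamate, glycine and Ca2+ challenge following 10 min compound preincubation, end/baseline fluorescence ratio compared with MK801 control.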
The target of assay [2] is NR1/NR2B (Homo sapiens (Human), UniProt Q05586+Q13224). Described as above. The following applies: Binned Activity, HEK293 cells expressing NR1/NR2B, Ca2+ influx; binned NR2B NAM IC50.
Sequence of NR1/NR2B (Homo sapiens (Human), UniProt Q05586+Q13224) (Q13224 27-1484, other chains not shown): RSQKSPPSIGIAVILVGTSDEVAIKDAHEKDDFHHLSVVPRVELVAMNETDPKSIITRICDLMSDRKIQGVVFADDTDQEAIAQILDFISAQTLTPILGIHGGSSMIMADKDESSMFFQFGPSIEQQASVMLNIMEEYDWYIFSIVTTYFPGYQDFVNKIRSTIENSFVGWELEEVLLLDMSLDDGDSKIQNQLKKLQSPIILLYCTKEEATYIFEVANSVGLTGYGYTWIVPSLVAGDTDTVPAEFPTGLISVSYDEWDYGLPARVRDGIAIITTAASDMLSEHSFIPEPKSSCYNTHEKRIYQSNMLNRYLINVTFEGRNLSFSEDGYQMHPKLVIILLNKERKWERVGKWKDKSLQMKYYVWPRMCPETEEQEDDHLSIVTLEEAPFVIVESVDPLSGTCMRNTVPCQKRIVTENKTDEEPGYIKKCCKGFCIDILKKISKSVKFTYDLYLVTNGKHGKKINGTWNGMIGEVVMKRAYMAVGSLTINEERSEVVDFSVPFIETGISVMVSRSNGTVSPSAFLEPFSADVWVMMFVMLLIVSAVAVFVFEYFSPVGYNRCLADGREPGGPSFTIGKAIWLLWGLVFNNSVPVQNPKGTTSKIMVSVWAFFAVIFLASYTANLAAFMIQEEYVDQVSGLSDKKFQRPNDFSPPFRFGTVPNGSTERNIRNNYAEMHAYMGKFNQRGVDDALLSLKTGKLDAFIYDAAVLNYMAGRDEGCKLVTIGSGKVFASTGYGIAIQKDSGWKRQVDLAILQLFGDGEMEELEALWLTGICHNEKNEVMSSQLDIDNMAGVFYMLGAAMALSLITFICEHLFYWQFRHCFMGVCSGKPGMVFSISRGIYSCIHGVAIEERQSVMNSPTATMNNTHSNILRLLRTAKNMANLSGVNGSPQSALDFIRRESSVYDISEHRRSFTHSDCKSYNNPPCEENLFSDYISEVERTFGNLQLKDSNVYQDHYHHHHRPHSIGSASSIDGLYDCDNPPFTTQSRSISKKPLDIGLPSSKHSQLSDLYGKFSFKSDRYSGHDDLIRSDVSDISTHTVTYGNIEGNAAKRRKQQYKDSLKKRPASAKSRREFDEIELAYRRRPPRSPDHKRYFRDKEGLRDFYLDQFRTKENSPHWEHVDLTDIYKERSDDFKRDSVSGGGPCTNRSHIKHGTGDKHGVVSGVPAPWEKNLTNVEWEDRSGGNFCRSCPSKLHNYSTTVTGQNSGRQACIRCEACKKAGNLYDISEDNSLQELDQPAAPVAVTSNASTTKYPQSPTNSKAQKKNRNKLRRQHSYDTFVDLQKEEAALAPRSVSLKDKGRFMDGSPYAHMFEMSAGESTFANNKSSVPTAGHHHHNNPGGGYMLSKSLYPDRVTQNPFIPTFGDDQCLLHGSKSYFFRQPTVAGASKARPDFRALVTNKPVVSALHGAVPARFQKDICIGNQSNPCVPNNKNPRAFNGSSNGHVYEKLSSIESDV
Where [3] appears, read: read-out: NR2B NAM IC50, HEK293 cells expressing NR1/NR2B, Ca2+ influx.
The mark [4] stands for this setting: read-out: Binned Activity, HEK293 cells expressing NR1/NR2B, Ca2+ influx, binned NR2B NAM IC50.

Sequence of NR1/NR2B (Homo sapiens (Human), UniProt Q13224) (Q13224 27-1484, other chains not shown): as above

Regarding `Oc1ccc([C@H](O)CN2C[C@@H]3C[C@](O)(Cc4ccccc4)C[C@@H]3C2)cc1` [Example 292, (3aR,5S,6aS)-5-benzyl-2-((S)-2-hydroxy-2-(4-hydroxyphenyl)ethyl) octahydrocyclopenta [c]pyrrol-5-ol], the IC50 was 4.71 µM at NR1/NR2B [1] (setting [3]) and 1 to 10 µM against NR1/NR2B [2].
As to `COC(=O)c1ccc(NC(=O)N2C[C@@H]3C[C@@](O)(c4ccccc4)C[C@@H]3C2)cc1` [Example 28, methyl 4-[({5-hydroxy-5-phenyl-octahydrocyclopenta[c]pyrrol-2-yl}carbonyl)amino] benzoate], the results for the IC50 on NR1/NR2B [1] (setting [3]) and against NR1/NR2B [2] were 10 µM and over 10 µM, respectively.
Regarding `O=C(CN1C[C@@H]2C[C@@](O)(Cc3cccc(F)c3F)C[C@@H]2C1)c1ccc(O)cn1` [Example 247, 2-((3aR,5r,6aS)-5-(2,3-difluorobenzyl)-5-hydroxyhexahydrocyclo-penta[c]pyrrol-2(1H)-yl)-1-(5-hydroxypyridin-2-yl)ethanone], the IC50 on NR1/NR2B [1] (setting [3]) was 3.06 µM; on NR1/NR2B [2] it was 1 to 10 µM.
Regarding `Cc1ccc(NC(=O)N2C[C@@H]3C[C@@](O)(c4ccc(F)cc4)C[C@@H]3C2)cc1` [Example 36, 5-(4-fluorophenyl)-5-hydroxy-N-(4-methylphenyl)-octahydrocyclopenta[c] pyrrole-2-carboxamide], the IC50 is 10 µM on NR1/NR2B [1] (setting [3]) and over 10 µM against NR1/NR2B [2].
As for `CC(C)(C)c1ccc([C@]2(O)C[C@H]3CN(C(=O)Nc4ccccc4)C[C@H]3C2)cc1` [Example 54], the IC50 on NR1/NR2B [1] (setting [3]) is 10 µM; against NR1/NR2B [2], over 10 µM.
On to `O=C(CN1C[C@@H]2C[C@@](F)(Cc3ccccc3)C[C@@H]2C1)c1ccc(O)cc1` [Example 312], for which the IC50 was 0.093 µM on NR1/NR2B [1] (setting [3]) and under 0.1 µM against NR1/NR2B [2].
Take `Cc1cccc(-c2cccc(C(=O)CN3C[C@@H]4C[C@@](O)(Cc5ccccc5)C[C@@H]4C3)c2)c1` [Example 276, 2-((3aR,5r,6aS)-5-benzyl-5-hydroxyhexahydrocyclo-penta[c]pyrrol-2(1H)-yl)-1-(3′-methyl-[1,1′-biphenyl]-3yl)ethanone]: the IC50 is 10 µM at NR1/NR2B [1] (setting [3]) and over 10 µM against NR1/NR2B [2].
On to `O=C(CN1C[C@@H]2CC(O)(CCc3ccccc3)C[C@@H]2C1)c1ccc(-c2cccc(F)c2)cc1` (stereo partly drawn) [Example 270, 1-[4-(3-fluorophenyl)phenyl]-2-[5-hydroxy-5-(2-phenylethyl)-octahydrocyclopenta[c]pyrrol-2-yl]ethan-1-one], for which the IC50 at NR1/NR2B [1] (setting [3]) was 10 µM; at NR1/NR2B [2] it was over 10 µM.
Consider `O=C(CN1C[C@@H]2C[C@@](O)(CC3CC3)C[C@@H]2C1)c1ccc(O)cc1` [Example 210, 2-((3aR,5r,6aS)-5-(cyclopropylmethyl)-5-hydroxyhexahydrocyclo-penta[c]pyrrol-2(1H)-yl)-1-(4-hydroxyphenyl)ethanone], for which the IC50 at NR1/NR2B [1] (setting [3]) is 10 µM; at NR1/NR2B [2] it was over 10 µM.
For `O=C(CN1C[C@@H]2C[C@@](O)(Cc3ccc(F)cc3)C[C@@H]2C1)c1ccc(O)c(F)c1` [Example 169, 1-(3-fluoro-4-hydroxyphenyl)-2-((3aR,5r,6aS)-5-(4-fluorobenzyl)-5-hydroxyhexahydrocyclo-penta[c]pyrrol-2(1H)-yl)ethanone], the IC50 at NR1/NR2B [1] (setting [3]) is 0.117 µM; against NR1/NR2B [2] it was 0.1 to 1 µM.
Take `COc1ccc(C)cc1NC(=O)N1C[C@@H]2C[C@@](O)(c3ccc(F)cc3)C[C@@H]2C1` [Example 42]: the IC50 at NR1/NR2B [1] (setting [3]) was 10 µM; on NR1/NR2B [2] it was over 10 µM.
As to `O=C(CN1C[C@H]2C[C@@H](Cc3ccccc3)C[C@H]2C1)c1ccc(O)cc1` [Example 303, 2-[(3aR,5S,6aS)-5-benzyl-octahydrocyclopenta[c]pyrrol-2-yl]-1-(4-hydroxyphenyl)ethan-1-onefluorophenol], the IC50 at NR1/NR2B [1] (setting [3]) was 0.0388 µM; on NR1/NR2B [2], under 0.1 µM.
Turning to `O=C(CN1C[C@@H]2C[C@@](O)(Cc3ccccc3)C[C@@H]2C1)c1ccc(-c2ccc(O)cc2)cc1` [Example 257, 2-((3aR,5r,6aS)-5-benzyl-5-hydroxyhexahydrocyclo-penta[c]pyrrol-2(1H)-yl)-1-(4′-hydroxy-[1,1′-biphenyl]-4-yl)ethanone], the IC50 at NR1/NR2B [1] (setting [3]) is 10 µM; against NR1/NR2B [2] it was over 10 µM.
On to `O=C(CN1C[C@@H]2C[C@@](O)(Cc3c(F)cccc3F)C[C@@H]2C1)c1ccc(O)cn1` [Example 237, 2-[(3aR,5R,6aS)-5-[(2,6-difluorophenyl)methyl]-5-hydroxy-octahydrocyclopenta[c]pyrrol-2-yl]-1-(5-hydroxypyridin-2-yl)ethan-1-one], for which the IC50 at NR1/NR2B [1] (setting [3]) is 1.91 µM; against NR1/NR2B [2], 1 to 10 µM.
On to `COc1ccc(C)cc1NC(=O)N1C[C@H]2C[C@@H](c3ccccc3)C[C@H]2C1` [Example 109, N-(2-methoxy-5-methylphenyl)-5-phenyl-octahydrocyclopenta[c] pyrrole-2-carboxamide], for which the IC50 is 10 µM at NR1/NR2B [1] (setting [3]) and over 10 µM at NR1/NR2B [2].
As for `CC(C)(C)c1ccc([C@]2(O)C[C@H]3CN(C(=O)Nc4ccc(Cl)c(C(F)(F)F)c4)C[C@H]3C2)cc1` [Example 53], the results for the IC50 on NR1/NR2B [1] (setting [3]) and against NR1/NR2B [2] were 10 µM and over 10 µM, respectively.
Turning to `CS(=O)(=O)Nc1ccc(C(=O)CN2C[C@@H]3C[C@@](O)(Cc4ccccc4)C[C@@H]3C2)nc1` [Example 235, N-(6-(2-((3aR,5r,6aS)-5-benzyl-5-hydroxyhexahydrocyclo-penta[c]pyrrol-2(1H)-yl)acetyl)pyridin-3-yl)methanesulfonamide], the IC50 at NR1/NR2B [1] (setting [3]) is 10 µM; at NR1/NR2B [2], over 10 µM.
In the case of `O=C(CN1C[C@@H]2C[C@@](O)(Cc3ccc(F)c(F)c3)C[C@@H]2C1)c1ccc(O)cc1` [Example 252, 2-((3aR,5r,6aS)-5-(3,4-difluorobenzyl)-5-hydroxyhexahydrocyclo-penta[c]pyrrol-2(1H)-yl)-1-(4-hydroxyphenyl)ethanone], the IC50 at NR1/NR2B [1] (setting [3]) is 0.0853 µM; on NR1/NR2B [2], under 0.1 µM.
Take `COc1ccc(C)cc1NC(=O)N1C[C@@H]2C[C@@](O)(c3ccccc3C)C[C@@H]2C1` [Example 23, 5-hydroxy-N-(2-methoxy-5-methylphenyl)-5-(2-methylphenyl)-octahydrocyclopenta[c] pyrrole-2-carboxamide]: the IC50 at NR1/NR2B [1] (setting [3]) is 10 µM; at NR1/NR2B [2], over 10 µM.
Consider `Cc1ccc(NC(=O)N2C[C@@H]3C[C@@](O)(c4ccccc4)C[C@@H]3C2)cc1` [Example 3, 5-hydroxy-N-(4-methylphenyl)-5-phenyl-octahydrocyclopenta[c] pyrrole-2-carboxamide], for which the IC50 on NR1/NR2B [1] (read-out: NR2B NAM IC50) was 10 µM; against NR1/NR2B [2] it was over 10 µM.
Regarding `O=C(CN1C[C@@H]2C[C@@](O)(Cc3ccccc3)C[C@@H]2C1)c1ccc(-c2cccnc2)cc1` [Example 267, 2-((3aR,5r,6aS)-5-benzyl-5-hydroxyhexahydrocyclo-penta[c]pyrrol-2(1H)-yl)-1-(4-(pyridin-3-yl)phenyl)ethanone], the IC50 at NR1/NR2B [1] (setting [3]) is 10 µM; at NR1/NR2B [2] it was over 10 µM.
On to `Cc1ccccc1-c1ccc(C(=O)CN2C[C@@H]3C[C@@](O)(Cc4ccccc4)C[C@@H]3C2)cc1` [Example 260, 2-((3aR,5r,6aS)-5-benzyl-5-hydroxyhexahydrocyclo-penta[c]pyrrol-2(1H)-yl)-1-(2′-methyl-[1,1′-biphenyl]-4-yl)ethanone], for which the IC50 at NR1/NR2B [1] (setting [3]) was 10 µM; on NR1/NR2B [2], over 10 µM.
For `Oc1ccc([C@@H](O)CN2C[C@@H]3C[C@@](O)(Cc4ccccc4)C[C@@H]3C2)nc1` [Example 1646, (3aR,5S,6aS)-5-benzyl-2-((S)-2-hydroxy-2-(5-hydroxypyridin-2-yl)ethyl)octahydrocyclo-penta[c]pyrrol-5-ol], in that order: 0.0381 µM and under 0.1 µM.
For `O=C(CN1C[C@@H]2C[C@@](O)(Cc3ccncc3)C[C@@H]2C1)c1ccc(O)cc1` [Example 226, 2-((3aR,5r,6aS)-5-hydroxy-5-(pyridin-4-ylmethyl)hexahydrocyclo-penta[c]pyrrol-2(1H)-yl)-1-(4-hydroxyphenyl)ethanone], in that order: 3.89 µM and 1 to 10 µM.
`O=C(CN1CC2CC(CCc3ccccc3)CC2C1)c1ccc(O)cc1` (stereo not drawn) [Example 323, 1-(4-hydroxyphenyl)-2-(5-phenethyl-hexahydrocyclo-penta[c]pyrrol-2(1H)-yl)ethanone]: the IC50 on NR1/NR2B [1] (setting [4]) is 0.1 to 1 µM; at NR1/NR2B [1] (setting [3]), 0.426 µM.
For `OC(CN1C[C@@H]2CC(O)(Cc3ccccc3)C[C@@H]2C1)c1ccc(F)cc1` (mixture of isomers) [Example 289, rac-(3aR,5r,6aS)-5-benzyl-2-(2-(4-fluorophenyl)-2-hydroxyethyl)octahydro-cyclopenta[c]pyrrol-5-ol], in that order: over 10 µM and 10 µM.
Take `Oc1ccc([C@H](O)CN2C[C@@H]3C[C@@](O)(Cc4ccccc4)C[C@@H]3C2)cc1` [Example 143, (3aR,5S,6aS)-5-benzyl-2-((S)-2-hydroxy-2-(4-hydroxyphenyl)ethyl)octa-hydrocyclopenta[c]pyrrol-5-ol]: on NR1/NR2B [1] (setting [4]), the IC50 was under 0.1 µM.
Take `O=C(CN1CC2CC(Cc3ccccc3)CC2C1)c1ccc(O)cn1` (stereo not drawn) [Example 297, 2-{5-benzyl-octahydrocyclopenta[c]pyrrol-2-yl}-1-(5-hydroxypyridin-2-yl)ethan-1-one]: the IC50 on NR1/NR2B [1] (setting [4]) was 0.1 to 1 µM; on NR1/NR2B [1] (setting [3]), 0.792 µM.
`O=C(CN1CC2CC(Cc3ccccc3)CC2C1)c1ccc(O)c(F)c1` (stereo not drawn) [Example 299, 2-{5-benzyl-octahydrocyclopenta[c]pyrrol-2-yl}-1-(3-fluoro-4-hydroxyphenyl) ethan-1-one]: the values for the IC50 on NR1/NR2B [1] (read-out: Binned Activity) and at NR1/NR2B [1] (read-out: NR2B NAM IC50) were under 0.1 µM and 0.0781 µM, respectively.
